Assay results taken from ChEMBL document CHEMBL1141121, “Selective inhibition of MCF-7(piGST) breast tumors using glutathione transferase-derived 2-methylene-cycloalkenones” (J Med Chem, 2005).

Legend:
Format in all cases: cell-based
[1] = molecular target: T1, Glutathione S-transferase P (Homo sapiens, UniProt P09211); assay: Inhibitory concentration against GSTP1-1 over-expressed in MCF-7piGST cells
Target sequence in this assay (P09211 whole entry): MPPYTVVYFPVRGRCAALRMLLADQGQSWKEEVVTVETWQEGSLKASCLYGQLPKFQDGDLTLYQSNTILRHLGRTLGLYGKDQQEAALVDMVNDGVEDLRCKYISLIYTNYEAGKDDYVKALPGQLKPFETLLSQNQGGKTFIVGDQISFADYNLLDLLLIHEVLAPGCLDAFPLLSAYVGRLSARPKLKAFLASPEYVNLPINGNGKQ

[2] = molecular target: T1, Glutathione S-transferase P; assay: Inhibitory concentration against GSTP1-1 over-expressed in MCF7wt cells
Target sequence in this assay (P09211 whole entry): as above

[3] = molecular target: T1, Glutathione S-transferase P; assay: Ratio between MCF7wt to MCF-7piGST cells overexpressing in GSTP1-1
Target sequence in this assay (P09211 2-210 limits assumed): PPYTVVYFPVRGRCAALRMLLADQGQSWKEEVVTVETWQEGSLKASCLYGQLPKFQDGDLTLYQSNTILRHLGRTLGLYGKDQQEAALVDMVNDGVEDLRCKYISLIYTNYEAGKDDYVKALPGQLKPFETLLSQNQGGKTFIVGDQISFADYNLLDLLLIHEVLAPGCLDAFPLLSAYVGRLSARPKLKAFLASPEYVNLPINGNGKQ

Row | IC50 [1] | IC50 [2] | Ratio [3] | SMILES
1 | 2.6 µM | 10.8 µM | 4.2 | C/C=C/OC(=O)CC1=CCCCCC1=O
2 | 13.2 µM | 29.6 µM | 2.2 | C/C=C/C(=O)OCC1=CCCCC1=O
